Measured values as given in patent publication US9493448B2, “Cycloalkane derivatives” (Daiichi Sankyo Company, Limited, priority 2012, dated 2016).
pIC50: −log10 of the molar value.

Biological target: hNav 1.7 (Homo sapiens (Human), UniProt Q15858)
Test: Electrophysiological evaluation, automated patch clamp IonWorks Quattro (Population Patch Clamp mode)
Assay type: cell-based
Details: HEK293A cells stably expressing hNav 1.7/β1/β2; response to second depolarization pulse, pre-pulse potential set to V1/2; read-out: hNav1.7 IC50

hNav 1.7, sequence (Q15858 whole entry): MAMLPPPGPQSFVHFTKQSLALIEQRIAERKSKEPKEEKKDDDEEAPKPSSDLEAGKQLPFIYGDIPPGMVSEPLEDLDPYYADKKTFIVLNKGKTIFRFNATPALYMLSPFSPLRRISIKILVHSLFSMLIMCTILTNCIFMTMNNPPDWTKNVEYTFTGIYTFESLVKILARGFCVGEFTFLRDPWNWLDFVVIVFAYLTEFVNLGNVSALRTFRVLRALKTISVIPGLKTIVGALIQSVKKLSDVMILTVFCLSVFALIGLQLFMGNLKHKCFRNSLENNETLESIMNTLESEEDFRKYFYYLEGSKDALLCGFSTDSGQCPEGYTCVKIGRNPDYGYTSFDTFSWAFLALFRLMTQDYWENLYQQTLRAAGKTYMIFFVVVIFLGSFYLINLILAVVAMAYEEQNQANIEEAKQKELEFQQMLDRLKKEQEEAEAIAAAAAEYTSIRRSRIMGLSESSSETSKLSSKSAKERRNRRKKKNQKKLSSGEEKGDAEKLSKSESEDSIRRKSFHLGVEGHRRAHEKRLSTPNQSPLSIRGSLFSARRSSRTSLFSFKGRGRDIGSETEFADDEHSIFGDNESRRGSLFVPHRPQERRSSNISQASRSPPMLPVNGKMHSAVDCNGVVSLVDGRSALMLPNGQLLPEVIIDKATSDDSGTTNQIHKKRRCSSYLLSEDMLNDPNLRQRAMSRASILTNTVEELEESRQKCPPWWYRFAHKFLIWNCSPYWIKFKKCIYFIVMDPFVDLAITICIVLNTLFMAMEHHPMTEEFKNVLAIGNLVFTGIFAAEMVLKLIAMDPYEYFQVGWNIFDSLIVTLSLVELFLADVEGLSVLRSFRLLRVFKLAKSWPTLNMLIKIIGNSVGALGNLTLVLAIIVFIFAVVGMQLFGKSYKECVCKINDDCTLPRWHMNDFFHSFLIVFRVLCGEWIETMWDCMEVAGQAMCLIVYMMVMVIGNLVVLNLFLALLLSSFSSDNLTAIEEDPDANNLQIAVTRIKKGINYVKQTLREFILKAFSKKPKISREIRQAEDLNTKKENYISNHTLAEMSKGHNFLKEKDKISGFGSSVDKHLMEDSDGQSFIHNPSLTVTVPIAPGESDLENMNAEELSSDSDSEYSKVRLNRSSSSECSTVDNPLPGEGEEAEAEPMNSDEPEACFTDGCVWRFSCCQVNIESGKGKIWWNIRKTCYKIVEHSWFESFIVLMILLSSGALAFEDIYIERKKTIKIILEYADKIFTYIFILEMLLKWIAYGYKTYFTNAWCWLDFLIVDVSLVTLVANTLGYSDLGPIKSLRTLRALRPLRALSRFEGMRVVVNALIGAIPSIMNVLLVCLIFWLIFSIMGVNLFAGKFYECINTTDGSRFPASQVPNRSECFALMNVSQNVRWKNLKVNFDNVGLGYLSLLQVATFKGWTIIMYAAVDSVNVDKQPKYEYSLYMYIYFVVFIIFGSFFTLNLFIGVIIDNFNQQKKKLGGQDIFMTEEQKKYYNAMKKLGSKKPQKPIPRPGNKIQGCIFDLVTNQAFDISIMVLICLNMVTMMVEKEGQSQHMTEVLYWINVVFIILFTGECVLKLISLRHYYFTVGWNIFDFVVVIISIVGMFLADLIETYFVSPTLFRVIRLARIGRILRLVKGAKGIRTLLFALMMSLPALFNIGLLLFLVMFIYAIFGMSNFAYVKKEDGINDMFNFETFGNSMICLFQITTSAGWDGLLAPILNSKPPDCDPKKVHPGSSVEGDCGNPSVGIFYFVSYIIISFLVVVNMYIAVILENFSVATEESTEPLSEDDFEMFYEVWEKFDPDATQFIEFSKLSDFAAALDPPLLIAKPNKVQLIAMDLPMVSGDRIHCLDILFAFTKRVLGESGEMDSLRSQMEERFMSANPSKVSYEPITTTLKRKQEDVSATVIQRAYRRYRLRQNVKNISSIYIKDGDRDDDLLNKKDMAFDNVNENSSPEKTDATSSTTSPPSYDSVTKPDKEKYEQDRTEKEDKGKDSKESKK
hNav 1.7, sequence (Q07699 19-218 partner): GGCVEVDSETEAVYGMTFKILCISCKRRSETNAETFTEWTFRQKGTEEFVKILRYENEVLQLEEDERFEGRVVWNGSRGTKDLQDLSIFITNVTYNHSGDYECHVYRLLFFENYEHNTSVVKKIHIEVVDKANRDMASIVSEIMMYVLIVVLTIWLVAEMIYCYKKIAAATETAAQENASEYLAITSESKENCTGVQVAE
hNav 1.7, sequence (O60939 30-215 partner): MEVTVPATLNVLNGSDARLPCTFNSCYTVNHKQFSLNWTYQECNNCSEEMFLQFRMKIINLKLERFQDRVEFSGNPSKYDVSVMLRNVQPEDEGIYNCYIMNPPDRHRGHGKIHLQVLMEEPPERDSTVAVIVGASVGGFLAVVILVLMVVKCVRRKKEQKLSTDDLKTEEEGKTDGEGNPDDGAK

Row | pIC50 | Compound
1 | 6.29 | Cn1nccc1[C@H]1CCC[C@@H]1Oc1ccc(S(=O)(=O)Nc2cc(F)ncn2)cc1F (relative stereo) [Example 17, 3-Fluoro-N-(6-fluoropyrimidin-4-yl)-4-{[(1S*,2R*)-2-(1-methyl-1H-pyrazol-5-yl)cyclopentyl]oxy}benzenesulfonamide]
2 | 6.60 | Cn1nccc1[C@H]1CCC[C@@H]1Oc1ccc(S(=O)(=O)Nc2ccncn2)cc1C(F)(F)F (relative stereo) [Example 21, 4-{[(1S*,2R*)-2-(1-Methyl-1H-pyrazol-5-yl)cyclopentyl]oxy}-N-(pyrimidin-4-yl)-3-(trifluoromethyl)benzenesulfonamide]
3 | 6.09 | Cn1nccc1[C@H]1C[C@@H](O)CC[C@@H]1Oc1cc(F)c(S(=O)(=O)Nc2ccncn2)cc1Cl (relative stereo) [Example 162, 5-Chloro-2-fluoro-4-{[(1S*,2R*,4S*)-4-hydroxy-2-(1-methyl-1H-pyrazol-5-yl)cyclohexyl]oxy}-N-(pyrimidin-4-yl)benzenesulfonamide]
4 | 6.57 | Cn1nccc1[C@H]1C[C@@H](F)C[C@@H]1Oc1cc(F)c(S(=O)(=O)Nc2ccncn2)cc1F (relative stereo) [Example 106, 2,5-Difluoro-4-{[(1S*,2R*,4R*)-4-fluoro-2-(1-methyl-1H-pyrazol-5-yl)cyclopentyl]oxy}-N-(pyrimidin-4-yl)benzenesulfonamide]
5 | 7.64 | Cn1nccc1[C@H]1CCC[C@@H]1Oc1cc(F)c(S(=O)(=O)Nc2ccnc(F)n2)cc1F (relative stereo) [Example 24, 2,5-Difluoro-N-(2-fluoropyrimidin-4-yl)-4-{[(1S*,2R*)-2-(1-methyl-1H-pyrazol-5-yl)cyclopentyl]oxy}benzenesulfonamide]
6 | 6.29 | Cn1nccc1[C@H]1CCC[C@@H]1Oc1cc(Cl)c(S(=O)(=O)Nc2ccncn2)cc1F (relative stereo) [Example 19, 2-Chloro-5-fluoro-4-{[(1S*,2R*)-2-(1-methyl-1H-pyrazol-5-yl)cyclopentyl]oxy}-N-(pyrimidin-4-yl)benzenesulfonamide]
7 | 6.70 | Cn1nccc1[C@H]1CCC[C@@H]1Oc1ccc(S(=O)(=O)Nc2ccncn2)cc1C#N (relative stereo) [Example 26, 3-Cyano-4-{[(1S*,2R*)-2-(1-methyl-1H-pyrazol-5-yl)cyclopentyl]oxy}-N-(pyrimidin-4-yl)benzenesulfonamide]
8 | 6.06 | Cn1nccc1[C@H]1CC(F)(F)CC[C@@H]1Oc1ccc(S(=O)(=O)Nc2ccncn2)c(F)c1 (relative stereo) [Example 130, 4-{[(1S*,2R*)-4,4-Difluoro-2-(1-methyl-1H-pyrazol-5-yl)cyclohexyl]oxy}-2-fluoro-N-(pyrimidin-4-yl)benzenesulfonamide]
9 | 6.25 | Cn1nccc1[C@H]1CC[C@@H](O)C[C@@H]1Oc1cc(F)c(S(=O)(=O)Nc2ccncn2)cc1Cl (relative stereo) [Example 160, 5-Chloro-2-fluoro-4-{[(1S*,2R*,5R*)-5-hydroxy-2-(1-methyl-1H-pyrazol-5-yl)cyclohexyl]oxy}-N-(pyrimidin-4-yl)benzenesulfonamide]
10 | 6.30 | Nc1cc([C@H]2CCC[C@@H]2Oc2cc(F)c(S(=O)(=O)Nc3ccncn3)cc2F)ccn1 (relative stereo) [Example 36, 4-{[(1S*,2R*)-2-(2-Aminopyridin-4-yl)cyclopentyl]oxy}-2,5-difluoro-N-(pyrimidin-4-yl)benzenesulfonamide]
11 | 6.00 | Cn1nncc1[C@H]1CCCC[C@@H]1Oc1cc(F)c(S(=O)(=O)Nc2ccncn2)cc1F (relative stereo) [Example 92, 2,5-Difluoro-4-{[(1S*,2R*)-2-(1-methyl-1H-1,2,3-triazol-5-yl)cyclohexyl]oxy}-N-(pyrimidin-4-yl)benzenesulfonamide]
12 | 6.12 | Cn1nccc1[C@@H]1[C@@H](Oc2cc(F)c(S(=O)(=O)Nc3ccncn3)cc2F)CCCC1(F)F (relative stereo) [Example 117, 4-{[(1S*,2R*)-3,3-Difluoro-2-(1-methyl-1H-pyrazol-5-yl)cyclohexyl]oxy}-2,5-difluoro-N-(pyrimidin-4-yl)benzenesulfonamide]
13 | 6.48 | Cc1ncccc1[C@H]1CCCC[C@@H]1Oc1cc(F)c(S(=O)(=O)Nc2ccncn2)cc1F (relative stereo) [Example 70, 2,5-Difluoro-4-{[(1S*,2R*)-2-(2-methylpyridin-3-yl)cyclohexyl]oxy}-N-(pyrimidin-4-yl)benzenesulfonamide]

Continued, molecule first:

Row | Compound | pIC50
14 | O=S(=O)(Nc1ncns1)c1cc(F)c(O[C@H]2CCCC[C@@H]2c2ccccc2)cc1F [Example 2, 2,5-Difluoro-4-{[(1S,2R)-2-phenylcyclohexyl]oxy}-N-(1,2,4-thiadiazol-5-yl)benzenesulfonamide] | 7.70
15 | Cn1cncc1[C@H]1CCCC[C@@H]1Oc1cc(F)c(S(=O)(=O)Nc2ccncn2)cc1F (relative stereo) [Example 49, 2,5-Difluoro-4-{[(1S*,2R*)-2-(1-methyl-1H-imidazol-5-yl)cyclohexyl]oxy}-N-(pyrimidin-4-yl)benzenesulfonamide] | 6.18
16 | O=S(=O)(Nc1ncns1)c1cc(F)c(O[C@H]2CCCC[C@@H]2c2ccccc2)cc1F (single isomer, unassigned) [Example 1, 2,5-Difluoro-4-{[(1S*,2R*)-2-phenylcyclohexyl]oxy}-N-(1,2,4-thiadiazol-5-yl)benzenesulfonamide] | 6.92
17 | Cn1nccc1[C@H]1C[C@H](OCc2ccccc2)CC[C@@H]1Oc1cc(F)c(S(=O)(=O)Nc2ccncn2)cc1F (relative stereo) [Example 112, 4-{[(1S*,2R*,4R*)-4-(Benzyloxy)-2-(1-methyl-1H-pyrazol-5-yl)cyclohexyl]oxy}-2,5-difluoro-N-(pyrimidin-4-yl)benzenesulfonamide] | 6.51
18 | O=S(=O)(Nc1ncns1)c1cc(F)c(O[C@@H]2CCCC[C@H]2c2ccccc2)cc1F [Example 75, 2,5-Difluoro-4-{[(1R,2S)-2-phenylcyclohexyl]oxy}-N-(1,2,4-thiadiazol-5-yl)benzenesulfonamide] | < 5.00
19 | Cn1nccc1[C@@H]1[C@@H](Oc2cc(F)c(S(=O)(=O)Nc3ccncn3)cc2F)CCC1(C)C (relative stereo) [Example 99, 4-{[(1S*,2R*)-3,3-Dimethyl-2-(1-methyl-1H-pyrazol-5-yl)cyclopentyl]oxy}-2,5-difluoro-N-(pyrimidin-4-yl)benzenesulfonamide] | 6.39
20 | O=S(=O)(Nc1ccncn1)c1cc(F)c(O[C@H]2CCCC[C@@H]2c2cccnc2)cc1F (relative stereo) [Example 39, 2,5-Difluoro-4-{[(1S*,2R*)-2-(pyridin-3-yl)cyclohexyl]oxy}-N-(pyrimidin-4-yl)benzenesulfonamide] | 6.00
21 | Cc1cc(S(=O)(=O)Nc2ccncn2)c(F)cc1O[C@H]1CC(F)(F)CC[C@@H]1c1ccn[nH]1 (relative stereo) [Example 155, 4-{[(1S*,2R*)-5,5-Difluoro-2-(1H-pyrazol-5-yl)cyclohexyl]oxy}-2-fluoro-5-methyl-N-(pyrimidin-4-yl)benzenesulfonamide] | 7.55
22 | O=S(=O)(Nc1ccncn1)c1cc(Cl)c(O[C@H]2CC(F)(F)CC[C@@H]2c2ccn[nH]2)cc1F (relative stereo) [Example 156, 5-Chloro-4-{[(1S*,2R*)-5,5-difluoro-2-(1H-pyrazol-5-yl)cyclohexyl]oxy}-2-fluoro-N-(pyrimidin-4-yl)benzenesulfonamide] | 7.39
23 | O=S(=O)(Nc1cscn1)c1cc(Cl)c(O[C@H]2CCCC[C@@H]2n2ccnc2)cc1F (relative stereo) [Example 13, 5-chloro-2-fluoro-4-{[(1S*,2S*)-2-(1H-imidazol-1-yl)cyclohexyl]oxy}-N-(1,3-thiazol-4-yl)benzenesulfonamide] | 7.09
24 | Cc1cc(S(=O)(=O)Nc2ccncn2)c(F)cc1O[C@@H]1CCC[C@H]1c1ccn[nH]1 [Example 149, 2-Fluoro-5-methyl-4-{[(1R,2S)-2-(1H-pyrazol-5-yl)cyclopentyl]oxy}-N-(pyrimidin-4-yl)benzenesulfonamide] | 4.49
25 | Nc1n[nH]cc1[C@H]1CCCC[C@@H]1Oc1cc(F)c(S(=O)(=O)Nc2ccncn2)cc1F (relative stereo) [Example 34, 4-{[(1S*,2R*)-2-(3-Amino-1H-pyrazol-4-yl)cyclohexyl]oxy}-2,5-difluoro-N-(pyrimidin-4-yl)benzenesulfonamide] | 6.60
26 | O=S(=O)(Nc1ccncn1)c1cc(Cl)c(O[C@@H]2CCC[C@H]2c2ccn[nH]2)cc1F [Example 151, 5-Chloro-2-fluoro-4-{[(1R,2S)-2-(1H-pyrazol-5-yl)cyclopentyl]oxy}-N-(pyrimidin-4-yl)benzenesulfonamide] | 4.48
27 | Cc1cc(S(=O)(=O)Nc2ccncn2)c(F)cc1O[C@@H]1CCCC[C@H]1c1cn[nH]c1 [Example 170, 2-Fluoro-5-methyl-4-{[(1R,2S)-2-(1H-pyrazol-4-yl)cyclohexyl]oxy}-N-(pyrimidin-4-yl)benzenesulfonamide] | < 5.00
28 | O=S(=O)(Nc1ccncn1)c1cc(Cl)c(O[C@@H]2CCCC[C@H]2c2ccn[nH]2)cc1F [Example 159, 5-Chloro-2-fluoro-4-{[(1R,2S)-2-(1H-pyrazol-5-yl)cyclohexyl]oxy}-N-(pyrimidin-4-yl)benzenesulfonamide] | 5.01
29 | Cc1cc(S(=O)(=O)Nc2ccncn2)c(F)cc1O[C@H]1CCCC[C@@H]1c1cn[nH]c1 [Example 172, 2-Fluoro-5-methyl-4-{[(1S,2R)-2-(1H-pyrazol-4-yl)cyclohexyl]oxy}-N-(pyrimidin-4-yl)benzenesulfonamide] | 7.47
30 | CCn1nccc1[C@H]1CCCC[C@@H]1Oc1cc(F)c(S(=O)(=O)Nc2cscn2)cc1Cl (relative stereo) [Example 12, 5-Chloro-4-{[(1S*,2R*)-2-(1-ethyl-1H-pyrazol-5-yl)cyclohexyl]oxy}-2-fluoro-N-(1,3-thiazol-4-yl)benzenesulfonamide] | 6.92
31 | O=S(=O)(Nc1ncns1)c1cc(F)c(O[C@H]2CCCCC[C@@H]2c2ccccc2)cc1F (relative stereo) [Example 7, 2,5-Difluoro-4-{[(1S*,2R*)-2-phenylcycloheptyl]oxy}-N-(1,2,4-thiadiazol-5-yl)benzenesulfonamide] | 6.35
